Experimental data reported in PubChem BioAssay (NCI).
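Results reflect a 48-hour exposure of cells in 96-well plates to compound at five concentrations. Here, GI50 denotes the concentration required for 50% inhibition of growth. TGI: concentration producing complete growth inhibition.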

Experiments:
Experiment in all cases: NCI tumour cell line growth inhibition, 48 h
OVCAR-5 ovarian = tested on: OVCAR-5 ovarian
RPMI-8226 leukemia = tested on: RPMI-8226 leukemia
CCRF-CEM leukemia = tested on: CCRF-CEM leukemia
BT-549 breast = tested on: BT-549 breast
HCT-116 colon = tested on: HCT-116 colon
MDA-MB-435 = tested on: MDA-MB-435
UO-31 renal = tested on: UO-31 renal
COLO 205 colon = tested on: COLO 205 colon
OVCAR-8 ovarian = tested on: OVCAR-8 ovarian
SNB-19 CNS = tested on: SNB-19 CNS
SK-MEL-28 melanoma = tested on: SK-MEL-28 melanoma
HS 578T breast = tested on: HS 578T breast
M14 melanoma = tested on: M14 melanoma
PC-3 prostate = tested on: PC-3 prostate
MCF7 breast = tested on: MCF7 breast
786-0 renal = tested on: 786-0 renal
EKVX NSCLC = tested on: EKVX NSCLC
SF-268 CNS = tested on: SF-268 CNS
UACC-257 melanoma = tested on: UACC-257 melanoma
SF-539 CNS = tested on: SF-539 CNS
HCT-15 colon = tested on: HCT-15 colon
NCI/ADR-RES ovarian = tested on: NCI/ADR-RES ovarian
MOLT-4 leukemia = tested on: MOLT-4 leukemia
IGROV1 ovarian = tested on: IGROV1 ovarian
NCI-H226 lung = tested on: NCI-H226 lung
OVCAR-4 ovarian = tested on: OVCAR-4 ovarian
ACHN renal = tested on: ACHN renal
NCI-H23 lung = tested on: NCI-H23 lung
UACC-62 melanoma = tested on: UACC-62 melanoma
SK-OV-3 ovarian = tested on: SK-OV-3 ovarian
HT29 colon = tested on: HT29 colon
NCI-H522 lung = tested on: NCI-H522 lung
HL-60(TB) leukemia = tested on: HL-60(TB) leukemia
KM12 colon = tested on: KM12 colon
LOX IMVI melanoma = tested on: LOX IMVI melanoma
TK-10 renal = tested on: TK-10 renal
A498 renal = tested on: A498 renal
CAKI-1 renal = tested on: CAKI-1 renal
SN12C renal = tested on: SN12C renal
T-47D breast = tested on: T-47D breast
MALME-3M melanoma = tested on: MALME-3M melanoma
SK-MEL-5 melanoma = tested on: SK-MEL-5 melanoma
HOP-92 NSCLC = tested on: HOP-92 NSCLC
U251 CNS = tested on: U251 CNS
SF-295 CNS = tested on: SF-295 CNS
MDA-MB-231 breast = tested on: MDA-MB-231 breast
A549 NSCLC = tested on: A549 NSCLC
SK-MEL-2 melanoma = tested on: SK-MEL-2 melanoma
HCC-2998 colon = tested on: HCC-2998 colon
HOP-62 NSCLC = tested on: HOP-62 NSCLC
K-562 leukemia = tested on: K-562 leukemia
DU-145 prostate = tested on: DU-145 prostate
SNB-75 CNS = tested on: SNB-75 CNS
OVCAR-3 ovarian = tested on: OVCAR-3 ovarian

`COc1cc2c3c(n(CCCNC4=NCCS4)c(=O)c2cc1OC)-c1cc2c(cc1C3=O)OCO2` was tested, and the GI50 (OVCAR-5 ovarian) was 668 nM, the TGI (OVCAR-5 ovarian) was 2080 nM and the GI50 (RPMI-8226 leukemia) was under 14.5 nM. The TGI (RPMI-8226 leukemia) was 296 nM, the GI50 (CCRF-CEM leukemia) was under 10 nM and the GI50 (BT-549 breast) was 1730 nM. The TGI (BT-549 breast) was 9300 nM, the GI50 (HCT-116 colon) was under 10 nM and the TGI (HCT-116 colon) was 127 nM. For the same compound, the TGI (MDA-MB-435) was 1830 nM, the GI50 (UO-31 renal) was 147 nM and the TGI (UO-31 renal) was over 100000 nM. It also gave a TGI (COLO 205 colon) of 4090 nM, a TGI (OVCAR-8 ovarian) of 2110 nM and a GI50 (SNB-19 CNS) of 1030 nM. For the same compound, the TGI (SNB-19 CNS) was over 100000 nM, the GI50 (SK-MEL-28 melanoma) was 1120 nM and the TGI (SK-MEL-28 melanoma) was 3210 nM. It also gave a GI50 (HS 578T breast) of 1400 nM, a TGI (HS 578T breast) of 3850 nM and a GI50 (M14 melanoma) of under 10 nM. For the same compound, the TGI (M14 melanoma) was 201 nM, the GI50 (PC-3 prostate) was 722 nM and the TGI (PC-3 prostate) was 3510 nM. For the same compound, the GI50 (MCF7 breast) was under 10 nM, the GI50 (786-0 renal) was under 10 nM and the TGI (786-0 renal) was 37.1 nM. For the same compound, the GI50 (EKVX NSCLC) was 1790 nM, the TGI (EKVX NSCLC) was 8800 nM and the GI50 (SF-268 CNS) was 188 nM. It also gave a TGI (SF-268 CNS) of 5190 nM, a GI50 (UACC-257 melanoma) of 1210 nM and a TGI (UACC-257 melanoma) of 5670 nM. The GI50 (SF-539 CNS) was under 12.2 nM, the TGI (SF-539 CNS) was 283 nM and the GI50 (HCT-15 colon) was 823 nM. For the same compound, the TGI (HCT-15 colon) was 3670 nM, the GI50 (NCI/ADR-RES ovarian) was under 18.3 nM and the TGI (NCI/ADR-RES ovarian) was 319 nM. It also gave a GI50 (MOLT-4 leukemia) of under 10 nM, a GI50 (IGROV1 ovarian) of 197 nM and a TGI (IGROV1 ovarian) of over 100000 nM. It also gave a GI50 (NCI-H226 lung) of 45.6 nM, a TGI (NCI-H226 lung) of 913 nM and a GI50 (OVCAR-4 ovarian) of 1820 nM. It also gave a TGI (OVCAR-4 ovarian) of 6100 nM, a GI50 (ACHN renal) of under 10 nM and a TGI (ACHN renal) of 135 nM. For the same compound, the GI50 (NCI-H23 lung) was under 12.3 nM, the TGI (NCI-H23 lung) was 128 nM and the GI50 (UACC-62 melanoma) was 55.9 nM. For the same compound, the TGI (UACC-62 melanoma) was 1660 nM, the TGI (SK-OV-3 ovarian) was 3180 nM and the GI50 (HT29 colon) was under 34.7 nM. For the same compound, the TGI (HT29 colon) was 756 nM, the GI50 (NCI-H522 lung) was 174 nM and the TGI (NCI-H522 lung) was over 56200 nM. For the same compound, the GI50 (HL-60(TB) leukemia) was 142 nM, the GI50 (KM12 colon) was 1110 nM and the TGI (KM12 colon) was 3110 nM. It also gave a GI50 (LOX IMVI melanoma) of under 10 nM, a TGI (LOX IMVI melanoma) of 232 nM and a GI50 (TK-10 renal) of 4590 nM. The TGI (TK-10 renal) was 10600 nM, the GI50 (A498 renal) was 1520 nM and the TGI (A498 renal) was 7680 nM. It also gave a GI50 (CAKI-1 renal) of under 10 nM, a TGI (CAKI-1 renal) of 749 nM and a GI50 (SN12C renal) of under 25.5 nM. It also gave a TGI (SN12C renal) of 408 nM, a TGI (T-47D breast) of 2700 nM and a GI50 (MALME-3M melanoma) of 1440 nM. The TGI (MALME-3M melanoma) was 5410 nM, the GI50 (SK-MEL-5 melanoma) was 236 nM and the TGI (SK-MEL-5 melanoma) was 2230 nM. The TGI (HOP-92 NSCLC) was 1950 nM, the GI50 (U251 CNS) was under 10 nM and the TGI (U251 CNS) was 197 nM. It also gave a GI50 (SF-295 CNS) of under 10 nM, a TGI (SF-295 CNS) of 1420 nM and a GI50 (MDA-MB-231 breast) of 465 nM. For the same compound, the TGI (MDA-MB-231 breast) was 1020 nM, the GI50 (A549 NSCLC) was under 10 nM and the TGI (A549 NSCLC) was 1330 nM. It also gave a GI50 (SK-MEL-2 melanoma) of 9980 nM, a TGI (SK-MEL-2 melanoma) of over 80600 nM and a GI50 (HCC-2998 colon) of under 10 nM. It also gave a GI50 (HOP-62 NSCLC) of under 10 nM, a GI50 (K-562 leukemia) of under 10 nM and a TGI (K-562 leukemia) of 631 nM. It also gave a GI50 (DU-145 prostate) of under 10 nM, a TGI (DU-145 prostate) of 1310 nM and a TGI (SNB-75 CNS) of 1440 nM. It also gave a GI50 (OVCAR-3 ovarian) of 203 nM and a TGI (OVCAR-3 ovarian) of 2090 nM.
